Experimental data as given in US10329272B2 (priority 2015, dated 2019).

Assays:
[1] = tested on: Magnaporthe grisea (Pyricularia oryzae); assay: microbe, parasite or virus in culture; format: cell-based; settings: read-out: control of Magnaporthe grisea
[2] = tested on: Glomerella lagenarium (Colletotrichum lagenarium); assay: Glomerella Lagenarium (Colletotrichum Lagenarium)/Liquid Culture (Anthracnose); format: cell-based; settings: Colletotrichum orbiculare, liquid culture, growth inhibition photometrically 3-4 days after application, compared to untreated control
Protocol: Glomerella Lagenarium (Colletotrichum Lagenarium)/Liquid Culture (Anthracnose)
(§1) Conidia of the fungus from cryogenic storage are directly mixed into nutrient broth (PDB potato dextrose broth). After placing a (DMSO) solution of test compound into a microtiter plate (96-well format), the nutrient broth containing the fungal spores is added. The test plates are incubated at 24° C. and the inhibition of growth is measured photometrically 3-4 days after application.

[3] = tested on: Botryotinia fuckeliana (Botrytis cinerea); assay: Botryotinia fuckeliana (Botrytis cinerea)/Liquid Culture (Gray Mould); format: cell-based; settings: liquid culture, growth inhibition photometrically 3-4 days after application, compared to untreated control
Protocol: Biological Examples Botryotinia fuckeliana (Botrytis cinerea)/Liquid Culture (Gray Mould)
as §1, with “(Vogels” for “(PDB potato dextrose”, “determined” for “measured”

[4] = tested on: Monographella nivalis (Microdochium nivale); assay: Monographella Nivalis (Microdochium Nivale)/Liquid Culture (Foot Rot Cereals); format: cell-based; settings: liquid culture, growth inhibition photometrically 4-5 days after application, compared to untreated control
Protocol: Monographella Nivalis (Microdochium Nivale)/Liquid Culture (Foot Rot Cereals)
as §1, with “determined” for “measured”, “4-5” for “3-4”

[5] = tested on: Mycosphaerella graminicola (Septoria tritici); assay: microbe, parasite or virus in culture; format: cell-based; settings: Zymoseptoria tritici, read-out: control of Mycosphaerella graminicola
[6] = tested on: Fusarium culmorum; assay: microbe, parasite or virus in culture; format: cell-based; settings: read-out: control of Fusarium culmorum
[7] = tested on: Gaeumannomyces graminis; assay: Gaeumannomyces Graminis/Liquid Culture (Take-all of Cereals); format: cell-based; settings: liquid culture, growth inhibition photometrically 4-5 days after application, compared to untreated control
Protocol: Gaeumannomyces Graminis/Liquid Culture (Take-all of Cereals)
as §1, with “Mycelial fragments of” for “Conidia of”, “storage were” for “storage are”, “is determined” for “is measured”, “photometrically 4-5” for “photometrically 3-4”

[8] = tested on: Sclerotinia sclerotiorum; assay: Sclerotinia sclerotiorum/Liquid Culture (Cottony Rot); format: cell-based; settings: liquid culture, growth inhibition photometrically 3-4 days after application, compared to untreated control
Protocol: Sclerotinia sclerotiorum/Liquid Culture (Cottony Rot)
Mycelia fragments of a newly grown liquid culture of the fungus are directly mixed into nutrient broth (Vogels broth). After placing a (DMSO) solution of test compound into a microtiter plate (96-well format) the nutrient broth containing the fungal material is added. The test plates are incubated at 24° C. and the inhibition of growth is determined photometrically 3-4 days after application.

[9] = tested on: Mycosphaerella arachidis (Cercospora arachidicola); assay: Mycosphaerella arachidis (Cercospora arachidicola)/Liquid Culture (Early Leaf Spot); format: cell-based; settings: 20 ppm; liquid culture, growth inhibition photometrically 4-5 days after application; compared to untreated control
Protocol: Mycosphaerella arachidis (Cercospora arachidicola)/Liquid Culture (Early Leaf Spot)
as §1, with “determined” for “measured”, “4-5” for “3-4”

Structure (SMILES) | inhibition of growth at 20 ppm [1] | inhibition of growth at 20 ppm [2] | inhibition of growth at 20 ppm [3] | inhibition of growth at 20 ppm [4] | inhibition of growth at 20 ppm [5] | inhibition of growth at 20 ppm [6] | melting point | inhibition of growth at 20 ppm [7] | inhibition of growth at 20 ppm [8] | control of Mycosphaerella arachidis [9]
Cn1nc2ccccc2c1C1=NC(C)(C)C(C)(C)c2c(F)cccc21 [Compound E-1, 5-fluoro-3,3,4,4-tetramethyl-1-(2-methylindazol-3-yl)isoquinoline] | ≥ 80% | ≥ 80% | ≥ 80% | ≥ 80% | ≥ 80% | ≥ 80% | 113 to 115 °C | ≥ 80% | ≥ 80% | at least 80%
Cc1cccc2c(C3=NC(C)(C)C(C)(C)c4c(F)cccc43)n(C)nc12 [Compound E-9, 1-(2,7-dimethylindazol-3-yl)-5-fluoro-3,3,4,4-tetramethyl-isoquinoline] | ≥ 80% | ≥ 80% | ≥ 80% | ≥ 80% | ≥ 80% | ≥ 80% | – | ≥ 80% | ≥ 80% | –
Cn1nc2c(Cl)cccc2c1C1=NC(C)(C)C(C)(C)c2c(F)cccc21 [Compound E-22, 1-(7-chloro-2-methyl-indazol-3-yl)-5-fluoro-3,3,4,4-tetramethyl-isoquinoline] | ≥ 80% | – | ≥ 80% | ≥ 80% | ≥ 80% | ≥ 80% | 45 to 47 °C | – | – | –
Cn1nc2c(Cl)c(Cl)ccc2c1C1=NC(C)(C)C(C)(C)c2c(F)cccc21 [Compound E-23, 1-(6,7-dichloro-2-methyl-indazol-3-yl)-5-fluoro-3,3,4,4-tetramethyl-isoquinoline] | ≥ 80% | ≥ 80% | ≥ 80% | ≥ 80% | ≥ 80% | – | – | ≥ 80% | ≥ 80% | –
Cc1ccc2c(C3=NC(C)(C)C(C)(C)c4c(F)cccc43)n(C)nc2c1Cl [Compound E-27, 1-(7-chloro-2,6-dimethyl-indazol-3-yl)-5-fluoro-3,3,4,4-tetramethyl-isoquinoline] | ≥ 80% | ≥ 80% | ≥ 80% | ≥ 80% | ≥ 80% | ≥ 80% | 113 to 116 °C | ≥ 80% | ≥ 80% | –
Cc1ccc2c(C3=NC(C)(C)C(C)(C)c4c(F)cccc43)n(C)nc2c1 [Compound E-28, 1-(2,6-dimethylindazol-3-yl)-5-fluoro-3,3,4,4-tetramethyl-isoquinoline] | ≥ 80% | ≥ 80% | ≥ 80% | ≥ 80% | ≥ 80% | ≥ 80% | 137 to 138 °C | ≥ 80% | ≥ 80% | –
Cc1ccc2c(C3=NC(C)(C)C(C)(C)c4c(F)cccc43)n(C)nc2c1C [Compound E-30, 5-fluoro-3,3,4,4-tetramethyl-1-(2,6,7-trimethylindazol-3-yl)isoquinoline] | ≥ 80% | ≥ 80% | ≥ 80% | ≥ 80% | ≥ 80% | – | 111 to 113 °C | – | ≥ 80% | –
